According to patent US20250214967A1, “FAK DEGRADERS, PHARMACEUTICAL COMPOSITIONS, AND THERAPEUTIC APPLICATIONS” (Berrybio (Shanghai) Limited, priority 2022, published 2025):

Experiments:
FAK [1] = target: T1, FAK (Homo sapiens (Human), UniProt Q05397); assay: FAK Degradation Assay (Western blot, FAK/GAPDH); assay type: cell-based; details: MDA-MB-231 cells, 24 h treatment, Western blot normalized to DMSO; for DC50: read-out: DC50 (half-maximal degradation concentration), FAK Degradation; for Dmax: read-out: Dmax (maximal degradation), FAK Degradation
Method in brief: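 H2122, MIA PaCa-2 or MDA-MB-231 cells treated with compound concentration series for 24 h at 37 °C, then lysed in RIPA. Equal-protein lysates Western blotted for FAK and GAPDH with ECL detection; FAK/GAPDH band ratios normalised to DMSO gave DC50 and Dmax.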
Target sequence in this assay (Q05397 whole entry): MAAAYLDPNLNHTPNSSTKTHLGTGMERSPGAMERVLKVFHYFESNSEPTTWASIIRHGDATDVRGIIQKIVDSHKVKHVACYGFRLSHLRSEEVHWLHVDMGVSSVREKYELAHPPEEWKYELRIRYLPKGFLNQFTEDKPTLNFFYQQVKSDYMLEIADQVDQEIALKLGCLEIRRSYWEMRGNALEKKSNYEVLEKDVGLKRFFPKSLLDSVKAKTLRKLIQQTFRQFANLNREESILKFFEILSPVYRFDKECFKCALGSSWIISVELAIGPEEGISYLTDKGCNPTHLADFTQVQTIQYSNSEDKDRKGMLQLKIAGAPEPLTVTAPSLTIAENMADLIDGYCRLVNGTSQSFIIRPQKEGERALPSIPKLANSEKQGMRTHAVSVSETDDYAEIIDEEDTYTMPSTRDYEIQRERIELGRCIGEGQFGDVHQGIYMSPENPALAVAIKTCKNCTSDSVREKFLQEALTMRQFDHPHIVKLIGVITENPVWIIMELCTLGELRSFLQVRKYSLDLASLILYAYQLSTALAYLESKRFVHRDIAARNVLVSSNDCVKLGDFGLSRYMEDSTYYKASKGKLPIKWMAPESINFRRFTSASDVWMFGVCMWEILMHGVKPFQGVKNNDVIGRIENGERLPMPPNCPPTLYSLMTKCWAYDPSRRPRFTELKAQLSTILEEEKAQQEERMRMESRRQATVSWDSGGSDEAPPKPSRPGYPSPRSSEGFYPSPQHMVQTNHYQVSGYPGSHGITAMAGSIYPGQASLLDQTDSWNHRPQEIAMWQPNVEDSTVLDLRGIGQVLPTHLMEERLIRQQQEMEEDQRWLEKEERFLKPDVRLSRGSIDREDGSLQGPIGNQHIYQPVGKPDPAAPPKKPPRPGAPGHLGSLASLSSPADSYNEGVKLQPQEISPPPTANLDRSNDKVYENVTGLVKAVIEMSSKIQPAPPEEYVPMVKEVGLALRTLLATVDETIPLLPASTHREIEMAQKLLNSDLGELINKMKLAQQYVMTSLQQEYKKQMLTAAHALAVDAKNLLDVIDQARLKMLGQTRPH

FAK [2] = target: T1, FAK; assay: FAK Kinase Assay (TR-FRET, LanthaScreen); assay type: biochemical; details: FAK 1 nM, ATP 6.8 μM, fluorescein-polyGT 0.2 μM, 30 min; read-out: IC50, FAK Inhibition
Description: The inhibitory activity of a compound against FAK was determined in a buffer containing 5 mM HEPES, pH 7.5, 0.01% Triton, 0.5 mM EGTA, and 0.01% BRIJ™-35 in a 384-well assay plate. The assay was carried out in the presence of the FAK at 1 nM and ATP at 6.8 μM using fluorescein-polyGT (0.2 μM) as an FAK substrate. Each assay mixture was incubated at room temperature for 30 min. A LANTHASCREEN® Tb-PY20 antibody was added to each well to stop the enzymatic reaction. The plate was incubated at room temperature for 60 min before reading on an ENVISION using TR-FRET module (excitation at 340 nm and emission at 520 nm and 495 nm).
Target sequence in this assay (Q05397 whole entry, species assumed): as the sequence (Q05397 whole entry) above

For Cc1cc(OCCOCCOCCOc2ccc3c(c2)C(=O)N(C2CCC(=O)NC2=O)C3=O)ccc1Nc1ncc(C(F)(F)F)c(NCc2cccc(P(C)(C)=O)c2)n1 (stereo not drawn) [Compound A3, 5-(2-(2-(2-(4-((4-((3-(Dimethylphosphoryl)benzyl)amino)-5-(trifluoromethyl)-pyrimidin-2-yl)amino)-3-methylphenoxy)ethoxy)ethoxy)ethoxy)-2-(2,6-dioxopiperidin-3-yl)-isoindoline-1,3-dione], which DC50 (FAK [1]) is on record?
The DC50 was 1980 nM.

And the Dmax (FAK [1])?
The Dmax was 100%.

And the IC50 (FAK [2])?
The IC50 was 223 nM.

CN(c1nccnc1CNc1nc(Nc2ccc(C(=O)NC3CCN(CC4CCN(c5ccc6c(c5)C(=O)N(C5CCC(=O)NC5=O)C6=O)CC4)CC3)cc2)ncc1C(F)(F)F)S(C)(=O)=O (stereo not drawn) [Compound A4, N-(1-((1-(2-(2,6-dioxopiperidin-3-yl)-1,3-dioxoisoindolin-5-yl)piperidin-4-yl)methyl)piperidin-4-yl)-4-((4-(((3-(N-methylmethylsulfonamido)pyrazin-2-yl)methyl)amino)-5-(trifluoromethyl)pyrimidin-2-yl)amino)benzamide] was tested. Which DC50 (FAK [1]) did it give?
Its DC50 is 0.5 nM.

And the Dmax (FAK [1])?
Its Dmax is 92%.

What about the IC50 (FAK [2]) of the same compound?
The IC50 was 0.4 nM.

What does the source list for CN(c1nccnc1CNc1nc(Nc2ccc(C(=O)N3CCC(N4CCN(c5ccc6c(c5)C(=O)N(C5CCC(=O)NC5=O)C6=O)CC4)CC3)cc2)ncc1C(F)(F)F)S(C)(=O)=O (stereo not drawn) [Compound A5, N-(3-(((2-((4-(4-(4-(2-(2,6-dioxopiperidin-3-yl)-1,3-dioxoisoindolin-5-yl)-piperazin-1-yl)piperidine-1-carbonyl)phenyl)amino)-5-(trifluoromethyl)pyrimidin-4-yl)amino)-methyl)pyrazin-2-yl)-N-methylmethanesulfonamide]?
DC50 (FAK [1]): 1.4 nM; Dmax (FAK [1]): 89%; IC50 (FAK [2]): 1.8 nM

How did the DC50 (FAK [1]) turn out when CN(c1nccnc1CNc1nc(Nc2ccc(CNC3CCN(CC4CCN(c5ccc6c(c5)C(=O)N(C5CCC(=O)NC5=O)C6=O)CC4)CC3)cc2)ncc1C(F)(F)F)S(C)(=O)=O (stereo not drawn) [Compound A6, N-(3-(((2-((4-(((1-((1-(2-(2,6-Dioxopiperidin-3-yl)-1,3-dioxoisoindolin-5-yl)-piperidin-4-yl)methyl)piperidin-4-yl)amino)methyl)phenyl)amino)-5-(trifluoromethyl)pyrimidin-4-yl)amino)methyl)pyrazin-2-yl)-N-methylmethanesulfonamide] was run?
The DC50 was 2.5 nM.

And the Dmax (FAK [1])?
Its Dmax is 99%.

And the IC50 (FAK [2])?
The IC50 was 0.39 nM.

CN(c1nccnc1CNc1nc(Nc2ccc(CNC3CCN(c4ccc5c(c4)C(=O)N(C4CCC(=O)NC4=O)C5=O)CC3)cc2)ncc1C(F)(F)F)S(C)(=O)=O (stereo not drawn) [Compound A7, N-(3-(((2-((4-(((1-(2-(2,6-Dioxopiperidin-3-yl)-1,3-dioxoisoindolin-5-yl)-piperidin-4-yl)amino)methyl)phenyl)amino)-5-(trifluoromethyl)pyrimidin-4-yl)amino)methyl)-pyrazin-2-yl)-N-methylmethanesulfonamide] was tested. Which DC50 (FAK [1]) did it give?
Its DC50 is 0.6 nM.

And the Dmax (FAK [1])?
The Dmax was 99%.

What about the IC50 (FAK [2]) of the same compound?
Its IC50 is 0.47 nM.
